The numbers were not newly measured in patent publication US20230305023A1, “METHODS OF TREATMENT AND DIAGNOSTIC OF PATHOLOGICAL CONDITIONS ASSOCIATED WITH INTENSE STRESS” (INSERM (INSTITUT NATIONAL DE LA SANTÉ ET DE LA RECHERCHE …, priority 2020, published 2023), which cites them from elsewhere.

One series addresses T1, mouse PAI-1 (Mus musculus, UniProt P22777).
T1 sequence (P22777 23-402): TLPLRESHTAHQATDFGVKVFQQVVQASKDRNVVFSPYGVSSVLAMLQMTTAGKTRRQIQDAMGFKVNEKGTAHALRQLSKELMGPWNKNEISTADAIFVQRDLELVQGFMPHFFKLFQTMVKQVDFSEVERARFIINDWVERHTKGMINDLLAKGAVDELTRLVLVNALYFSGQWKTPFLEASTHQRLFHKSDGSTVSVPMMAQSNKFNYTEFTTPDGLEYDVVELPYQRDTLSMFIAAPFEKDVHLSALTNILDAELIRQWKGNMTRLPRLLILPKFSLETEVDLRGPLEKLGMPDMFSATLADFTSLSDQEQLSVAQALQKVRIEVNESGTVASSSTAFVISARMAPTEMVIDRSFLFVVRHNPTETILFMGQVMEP
The settings on record: cited from earlier work.

The next series deals with T2, rat PAI-1 (Rattus norvegicus, UniProt P20961).
T2 sequence (P20961 24-402): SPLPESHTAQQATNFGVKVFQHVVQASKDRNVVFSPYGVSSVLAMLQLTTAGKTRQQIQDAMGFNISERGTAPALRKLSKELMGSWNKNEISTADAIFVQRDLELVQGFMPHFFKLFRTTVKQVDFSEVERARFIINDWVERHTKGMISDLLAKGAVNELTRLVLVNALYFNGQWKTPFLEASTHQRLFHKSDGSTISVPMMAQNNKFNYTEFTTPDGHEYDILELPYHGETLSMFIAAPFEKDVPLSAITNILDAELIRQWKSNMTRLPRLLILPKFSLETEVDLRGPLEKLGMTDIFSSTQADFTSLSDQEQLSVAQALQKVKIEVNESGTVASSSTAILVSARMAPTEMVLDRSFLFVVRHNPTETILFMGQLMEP
The settings on record: cited from earlier work.

Series [1] concerns rat. The settings on record: cited from earlier work.
Series [2] relates to rat. The settings on record: in vivo; cited from earlier work.
Series [3] deals with plasminogen activator inhibitor type 1 (PAI-1). The following applies: in vivo; cited from earlier work.

As to `O=C1S/C(=C\c2cc(O)c(O)c(O)c2)C(=O)N1Cc1ccc(Cl)c(Cl)c1` [IMD-1622, 3-(3,4-dichlorobenzyl)-5-(3,4,5-trihydroxy-benzylidene)-thiazolidine-2,4-dione], the “activity of mouse PAI-1” value at mouse PAI-1 was “inhibit”. Moreover, the “activity of rat PAI-1” value on rat PAI-1 is reported as “inhibit”. In the series on rat [1] (compared to control), the thrombus weight entry is on record as “decreased”. In the series with rat [1] (rat, in vivo), the intimal thickening result was “suppressed”. Moreover, the rat autoimmune myocarditis result in the series on rat [2] is “suppresses”.
Consider Defibrotide, for which the “circulating levels of plasminogen activator inhibitor type 1 (PAI-1)” value in series [3] is recorded as “reduces”.
